# From paper PMC11620503 (Antimicrobial Agents and Chemotherapy, 2024)
# Like-named read-outs stand apart in the source and are kept apart here.
# Tests used:
# [1] = system: Streptococcus agalactiae ATCC 13813; test: MIC, reference strains of aerobic bacteria; assay type: cell-based; details: ATCC13813
# [2] = system: Moraxella catarrhalis ATCC 25238; test: MIC, reference strains of aerobic bacteria; assay type: cell-based; details: ATCC25238
# [3] = system: Staphylococcus aureus KUB4690/methicillin-resistant; test: MIC, reference strains of aerobic bacteria; assay type: cell-based
# [4] = system: E. coli ATCC BAA-2469 (NDM-1); test: MIC, broth microdilution; assay type: cell-based, Escherichia coli
# [5] = system: Serratia marcescens NBRC 12648 (ATCC 14756); test: MIC, reference strains of aerobic bacteria; assay type: cell-based
# [6] = system: A. baumannii CDC-35 (OXA-66 and OXA-72 producer); test: Neutropenic murine thigh infection model; details: MEM 50 mg/kg q3h sc for 24 h
# [7] = system: Streptococcus pseudoporcinus ATCC BAA-1381; test: MIC, reference strains of aerobic bacteria; assay type: cell-based; details: ATCCBAA1381
# [8] = system: E. coli CDC-149 (NDM-7), PBP3 mutations; test: MIC, broth microdilution; assay type: cell-based; details: Escherichia coli
# [9] = system: Serine-carbapenemase-producing Enterobacterales (6); test: MIC and MBC testing; assay type: cell-based; details: 6 serine-carbapenemase-producing Enterobacterales; fixed BLI concentration (μg/mL) in label
# [10] = system: Acinetobacter baumannii ATCC 19606; test: MIC, reference strains of aerobic bacteria; assay type: cell-based; details: ATCC19606
# [11] = system: serine-carbapenemase-producing isolates (Enterobacterales); test: MIC, broth microdilution; assay type: cell-based; details: for CLSI MIC interpretation R (resistant) / CLSI MIC interpretation S (susceptible) / CLSI MIC interpretation I (intermediate): CLSI breakpoints, marked c: breakpoints for β-lactam alone
# [12] = system: 55 isolates of A. baumannii; test: MIC, broth microdilution; assay type: cell-based, Acinetobacter baumannii; details: for CLSI MIC interpretation I (intermediate) / CLSI MIC interpretation R (resistant) / CLSI MIC interpretation S (susceptible): CLSI breakpoints, marked c: breakpoints for β-lactam alone
# [13] = system: Staphylococcus aureus ATCC 6538P/methicillin-sensitive; test: MIC, reference strains of aerobic bacteria; assay type: cell-based; details: ATCC6538P
# [14] = system: Providencia rettgeri ATCC 9250; test: MIC, reference strains of aerobic bacteria; assay type: cell-based; details: ATCC9250
# [15] = system: E. coli CDC-151 (NDM-5), PBP3 mutations; test: MIC, broth microdilution; assay type: cell-based; details: Escherichia coli, fixed BLI concentration (μg/mL) in parentheses in label
# [16] = system: P. aeruginosa CDC-110 (VIM-2); test: MIC, broth microdilution; assay type: cell-based; details: Pseudomonas aeruginosa, agent alone
# [17] = system: Klebsiella oxytoca KUB4313; test: MIC, reference strains of aerobic bacteria; assay type: cell-based
# [18] = system: Proteus mirabilis NBRC 3849 (NCTC 6197); test: MIC, reference strains of aerobic bacteria; assay type: cell-based
# [19] = system: Citrobacter freundii ATCC 8090; test: MIC, reference strains of aerobic bacteria; assay type: cell-based; details: ATCC8090
# [20] = system: Streptococcus pyogenes ATCC 12344; test: MIC, reference strains of aerobic bacteria; assay type: cell-based; details: ATCC12344
# [21] = system: Streptococcus salivarius GTC215; test: MIC, reference strains of aerobic bacteria; assay type: cell-based
# [22] = system: Pseudomonas aeruginosa ATCC 27853; test: MIC, reference strains of aerobic bacteria; assay type: cell-based; details: ATCC27853
# [23] = system: Staphylococcus saprophyticus KUB4845; test: MIC, reference strains of aerobic bacteria; assay type: cell-based
# [24] = system: E. coli CDC-119 (NDM-1), PBP3 mutations; test: MIC, broth microdilution; assay type: cell-based; details: Escherichia coli
# [25] = system: Enterobacterales (154), CDC AR Bank; test: MIC, broth microdilution; assay type: cell-based
# [26] = system: 207 Enterobacterales including carbapenem-resistant isolates; test: MIC, broth microdilution; assay type: cell-based; details: for CLSI MIC interpretation I (intermediate) / CLSI MIC interpretation R (resistant) / CLSI MIC interpretation S (susceptible): CLSI breakpoints, marked c: breakpoints for β-lactam alone, tigecycline: FDA breakpoints
# [27] = system: Peptostreptococcus anaerobius ATCC 27337; test: MIC, agar dilution, reference strains of anaerobic bacteria; assay type: cell-based; details: ATCC27337
# SHV-5 = SHV-5 (Klebsiella pneumoniae, UniProt P0A3M1); test: Ki app determination (Waley's method)
# Olsenella uli KUB3012 = test: MIC, agar dilution, reference strains of anaerobic bacteria; assay type: cell-based
# [28] = system: Eggerthella lenta ATCC 43055; test: as above; assay type: cell-based; details: ATCC43055
# [29] = system: Bacteroides thetaiotaomicron ATCC 29741; test: as above; assay type: cell-based; details: ATCC29741
# OXA-72 = OXA-72 (Acinetobacter baumannii, UniProt Q5XQU0); test: Ki app determination (Waley's method)
# OXA-48 = OXA-48 (Klebsiella pneumoniae, UniProt Q6XEC0); test: Ki app determination (Waley's method)
# [30] = system: 20 anaerobic strains (including Clostridium perfringens, Atopobium rimae, Bacteroides spp., and Prevotella spp.); assay type: cell-based
# [31] = Enterobacterales with serine-carbapenemases (61), CDC AR Bank
# [32] = Enterobacterales with serine-carbapenemases (61), CDC AR Bank, fixed concentration (μg/mL) in label
# [33] = Enterobacterales with serine-carbapenemases (80), tigecycline: FDA breakpoints
# [34] = Enterobacterales with serine-carbapenemases (80), fixed concentration (μg/mL) in label, read-out: MIC50
# [35] = Enterobacterales with serine-carbapenemases (80), fixed concentration (μg/mL) in label, read-out: MIC90
# [36] = Acinetobacter baumannii (55), fixed concentration (μg/mL) in label
# [37] = CLSI breakpoints, marked c: breakpoints for β-lactam alone
# [38] = fixed concentration (μg/mL) in label
# [39] = All Enterobacterales (207), cefiderocol 205 isolates
# [40] = All Enterobacterales (207), cefiderocol 205 isolates, fixed concentration (μg/mL) in label
# Sequence of SHV-5 (P0A3M1 22-286): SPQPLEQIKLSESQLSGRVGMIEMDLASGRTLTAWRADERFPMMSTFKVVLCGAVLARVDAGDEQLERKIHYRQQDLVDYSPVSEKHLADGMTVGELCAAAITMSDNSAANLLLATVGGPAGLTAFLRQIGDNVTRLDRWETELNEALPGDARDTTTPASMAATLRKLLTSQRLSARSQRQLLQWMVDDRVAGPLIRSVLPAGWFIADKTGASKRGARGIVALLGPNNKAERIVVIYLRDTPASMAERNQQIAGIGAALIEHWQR
# Sequence of OXA-72 (Q5XQU0 entry or part of it): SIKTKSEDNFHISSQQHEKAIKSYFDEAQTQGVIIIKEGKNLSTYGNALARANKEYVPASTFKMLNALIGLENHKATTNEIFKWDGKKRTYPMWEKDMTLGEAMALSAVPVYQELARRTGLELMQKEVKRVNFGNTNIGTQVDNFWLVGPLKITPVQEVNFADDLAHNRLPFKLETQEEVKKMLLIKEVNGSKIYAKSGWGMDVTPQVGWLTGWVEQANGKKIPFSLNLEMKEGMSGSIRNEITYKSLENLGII
# Sequence of OXA-48 (Q6XEC0 23-265, looked up, species assumed): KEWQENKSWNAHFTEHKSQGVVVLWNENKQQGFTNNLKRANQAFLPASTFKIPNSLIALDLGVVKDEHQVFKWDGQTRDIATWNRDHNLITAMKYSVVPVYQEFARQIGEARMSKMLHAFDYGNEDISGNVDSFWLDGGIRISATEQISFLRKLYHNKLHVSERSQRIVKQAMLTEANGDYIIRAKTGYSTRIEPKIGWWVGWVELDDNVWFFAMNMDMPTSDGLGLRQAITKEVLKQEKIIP
structure (smiles),measurement,setting,value
"C[C@@H](O)[C@H]1C(=O)N2C(C(=O)O)=C(S[C@@H]3CN[C@H](C(=O)N(C)C)C3)[C@H](C)[C@H]12 [MEM, meropenem]",MIC,[1],≤ 0.03 µg/mL
same,MIC,[2],≤ 0.03 µg/mL
same,MIC,[3],32 µg/mL
same,MIC,"[4]; Escherichia coli, ATCCBAA2469, Experiment 1, agent alone, read-out: MIC",32 µg/mL
same,MIC,"[4]; Experiment 2, agent alone",32 µg/mL
same,MIC,[5],≤ 0.03 µg/mL
same,bacterial growth in the thigh compared with the control group,[6],no significant reduction in bacterial growth
same,MIC,[7],≤ 0.03 µg/mL
same,MIC,[8],8 µg/mL
same,MIC Range,[9],1 to 64 µg/mL
same,MIC,[10],0.5 µg/mL
same,CLSI MIC interpretation R (resistant),[11]; [31],57.4%
same,CLSI MIC interpretation S (susceptible),[11]; [31],31.1%
same,MIC50,[11]; [32],4 µg/mL
same,MIC90,[11]; [32],32 µg/mL
same,CLSI MIC interpretation I (intermediate),[11]; [33],11.3%
same,CLSI MIC interpretation R (resistant),[11]; [33],61.3%
same,CLSI MIC interpretation S (susceptible),[11]; [33],27.5%
same,MIC50,[11]; [34],4 µg/mL
same,MIC90,[11]; [35],32 µg/mL
same,CLSI MIC interpretation I (intermediate),[12]; Acinetobacter baumannii (55),5.5%
same,CLSI MIC interpretation R (resistant),[12]; Acinetobacter baumannii (55),89.1%
same,CLSI MIC interpretation S (susceptible),[12]; Acinetobacter baumannii (55),5.5%
same,MIC50,[12]; [36],32 µg/mL
same,MIC50,"[12]; Acinetobacter baumannii, read-out: MIC50",32 µg/mL
same,MIC,[13],0.06 µg/mL
same,MIC,[14],0.06 µg/mL
same,MIC,[15],8 µg/mL
same,MIC,[16],64 µg/mL
same,MIC,[17],≤ 0.03 µg/mL
same,MIC,[18],≤ 0.03 µg/mL
same,MIC,[19],≤ 0.03 µg/mL
same,MIC,[20],≤ 0.03 µg/mL
same,MIC,[21],≤ 0.03 µg/mL
same,MIC,[22],0.25 µg/mL
same,MIC,[23],0.12 µg/mL
same,MIC,[24],32 µg/mL
same,CLSI MIC interpretation I (intermediate),[25]; [37],9.7%
same,CLSI MIC interpretation R (resistant),[25]; [37],50%
same,CLSI MIC interpretation S (susceptible),[25]; [37],40.3%
same,MIC50,[25]; [38],2 µg/mL
same,MIC90,[25]; [38],32 µg/mL
same,CLSI MIC interpretation I (intermediate),[26]; [39],11.1%
same,CLSI MIC interpretation R (resistant),[26]; [39],50.2%
same,CLSI MIC interpretation S (susceptible),[26]; [39],38.6%
same,MIC50,[26]; [40],4 µg/mL
same,MIC90,[26]; [40],32 µg/mL
same,MIC50,[26]; read-out: MIC50,4 µg/mL
same,MIC90,[26]; read-out: MIC90,32 µg/mL
"CC(C)(O/N=C(\C(=O)N[C@@H]1C(=O)N2C(C(=O)[O-])=C(C[N+]3(CCNC(=O)c4ccc(O)c(O)c4Cl)CCCC3)CS[C@H]12)c1csc(N)n1)C(=O)O [FDC, cefiderocol]",MIC,[8],16 µg/mL
same,CLSI MIC interpretation I (intermediate),[11]; [33],0%
same,CLSI MIC interpretation R (resistant),[11]; [33],0%
same,CLSI MIC interpretation S (susceptible),[11]; [33],100%
same,MIC Range,"[11]; Enterobacterales with serine-carbapenemases (80), fixed concentration (μg/mL) in label",≤0.06 to 4 µg/mL
same,MIC50,[11]; [34],0.25 µg/mL
same,MIC90,[11]; [35],2 µg/mL
same,CLSI MIC interpretation I (intermediate),[12]; Acinetobacter baumannii (55),3.6%
same,CLSI MIC interpretation R (resistant),[12]; Acinetobacter baumannii (55),1.8%
same,CLSI MIC interpretation S (susceptible),[12]; Acinetobacter baumannii (55),94.5%
same,MIC Range,[12]; [36],≤0.06 to 16 µg/mL
same,MIC50,"[12]; Acinetobacter baumannii (55), fixed concentration (μg/mL) in label, read-out: MIC50",0.5 µg/mL
same,MIC90,"[12]; Acinetobacter baumannii (55), fixed concentration (μg/mL) in label, read-out: MIC90",4 µg/mL
same,MIC,[15],4 µg/mL
same,MIC,[24],0.5 µg/mL
same,CLSI MIC interpretation I (intermediate),[26]; [39],2%
same,CLSI MIC interpretation R (resistant),[26]; [39],0.5%
same,CLSI MIC interpretation S (susceptible),[26]; [39],97.6%
same,MIC50,[26]; read-out: MIC50,0.5 µg/mL
same,MIC90,[26]; read-out: MIC90,2 µg/mL
"N[C@@H](C(=O)N1CC(Oc2ccc3c(c2C(=O)O)OB(O)CC3)C1)c1c[nH]cn1 [KSP-1007, 7-({1-[(2R)-2-amino-2-(1H-imidazol-4-yl)acetyl]azetidin-3-yl}oxy)-2-hydroxy-3,4-dihydro-2H-1,2-benzoxaborinine-8-carboxylic acid]",MIC,[27],> 256 µg/mL
same,Ki,SHV-5,127 ± 16 nM
same,MIC,[1],4 µg/mL
same,MIC,[2],64 µg/mL
same,MIC,[3],> 128 µg/mL
same,MIC,[5],> 128 µg/mL
same,MIC,[7],1 µg/mL
same,MIC,Olsenella uli KUB3012,64 µg/mL
same,MIC,[28],> 256 µg/mL
same,MIC,[29],64 µg/mL
same,Ki,OXA-72,0.621 ± 0.0248 nM
same,MIC,[10],> 128 µg/mL
same,Ki,OXA-48,0.861 ± 0.0767 nM
same,MIC,[13],8 µg/mL
same,MIC,[14],> 128 µg/mL
same,MIC,[17],128 µg/mL
same,MIC,[18],> 128 µg/mL
same,MIC,[19],128 µg/mL
same,MIC,[20],4 µg/mL
same,MIC,[21],0.25 µg/mL
same,MIC,[22],> 128 µg/mL
same,MIC,[23],4 µg/mL
same,"MICs, range",[30],2 to 256 µg/mL
